Source: patent US20210085640A1, “ACYLATED CATECHIN POLYPHENOLS AND METHODS OF THEIR USE FOR THE TREATMENT OF CANCER” (Flagship Pioneering Innovations V, Inc., priority 2018, published 2021)

Tests used:
Assay type in all cases: cell-based
T24 bladder cancer cells = assay: Cancer cell survival (CellTiter-Glo), T24; conditions: Homo sapiens
Procedure, shortened: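 Viability by CellTiter-Glo after 72 h compound treatment of T24 bladder cancer cells (4×10^3/well, plated the night before), nine concentration levels in triplicate. Percent survival normalised to untreated cells minus medium background, from which IC50 was determined.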

[1] = system: Daudi lymphoma cancer cells; assay: Cancer cell survival (CellTiter-Glo), Daudi; conditions: Homo sapiens, 72 h
Procedure, shortened: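 Daudi cells (4×10^3/well) were exposed for 72 h at 37 °C to nine concentrations of compound, added as 10× solutions spanning 1 μM–10 mM (fatty acids) or 100 nM–1 mM (others). CellTiter-Glo luminescence gave % survival versus untreated, medium-blank corrected; IC50 derived.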

A-431 skin cancer cells = assay: Cancer cell survival (CellTiter-Glo), A-431; conditions: Homo sapiens, A-431 cells, 72 h
Procedure, shortened: (§1)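 Following overnight plating of 4×10^3 cells per well, triplicate wells received compound at nine concentrations (10× dosing stocks: fatty acids 1 μM-10 mM, all others 100 nM-1 mM). Incubation lasted 72 h at 37 C under 5% CO2. CellTiter-Glo luminescence then gave percent survival and IC50.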

MCF7 breast cancer cells = assay: Cancer cell survival (CellTiter-Glo), MCF7; conditions: Homo sapiens, 72 h
Procedure, shortened: as §1

A549 lung cancer cells = assay: Cancer cell survival (CellTiter-Glo), A549; conditions: Homo sapiens, 72 h
Procedure, shortened: as §1

AGS stomach cancer cells = assay: Cancer cell survival (CellTiter-Glo), AGS
Procedure, shortened: as §1

[2] = system: HCT 116 colorectal cancer cells; assay: Cancer cell survival (CellTiter-Glo), HCT 116; conditions: Homo sapiens, HCT 116 cells, 72 h
Procedure, shortened: as §1

[3] = system: PC-3 prostate cancer cells; assay: Cancer cell survival (CellTiter-Glo), PC-3; conditions: Homo sapiens, PC-3 cells, 72 h
Procedure, shortened: as §1

[4] = 101 nM, read-out: Cell survival at given concentration
[5] = 318 nM, read-out: Cell survival at given concentration
[6] = 1 μM, read-out: Cell survival at given concentration
[7] = 3 μM, read-out: Cell survival at given concentration
[8] = 10 μM, read-out: Cell survival at given concentration
[9] = 32 μM, read-out: Cell survival at given concentration
[10] = 100 μM, read-out: Cell survival at given concentration
[11] = 316 μM, read-out: Cell survival at given concentration
[12] = 1000 μM, read-out: Cell survival at given concentration

O=c1cc(-c2ccc(O)c(O)c2)oc2cc(O)cc(O)c12 [luteolin]
viability at 0.101 µM (T24 bladder cancer cells; T-24, 101 nM, 72 h, read-out: Cell survival at given concentration): 99%
viability at 0.318 µM (T24 bladder cancer cells; T-24, 318 nM, 72 h, read-out: Cell survival at given concentration): 102%
viability at 1 µM (T24 bladder cancer cells; T-24, 1 μM, 72 h, read-out: Cell survival at given concentration): 103%
viability at 3 µM (T24 bladder cancer cells; T-24, 3 μM, 72 h, read-out: Cell survival at given concentration): 94%
viability at 10 µM (T24 bladder cancer cells; T-24, 10 μM, 72 h, read-out: Cell survival at given concentration): 85%
viability at 32 µM (T24 bladder cancer cells; T-24, 32 μM, 72 h, read-out: Cell survival at given concentration): 35%
viability at 100 µM (T24 bladder cancer cells; T-24, 100 μM, 72 h, read-out: Cell survival at given concentration): 9%
viability at 316 µM (T24 bladder cancer cells; T-24, 316 μM, 72 h, read-out: Cell survival at given concentration): 8%
viability at 1000 µM (T24 bladder cancer cells; T-24, 1000 μM, 72 h, read-out: Cell survival at given concentration): 6%
IC50 (T24 bladder cancer cells; T-24, 72 h, Table 3.1, read-out: 1050): 22.8 µM
viability at 0.101 µM [1, 4]: 100%
viability at 0.318 µM [1, 5]: 102%
viability at 1 µM [1, 6]: 103%
viability at 3 µM [1, 7]: 106%
viability at 10 µM [1, 8]: 85%
viability at 32 µM [1, 9]: 33%
viability at 100 µM [1, 10]: 10%
viability at 316 µM [1, 11]: 6%
viability at 1000 µM [1, 12]: 16%
IC50 ([1]; Table 4.1): 21.6 µM
viability at 0.101 µM (A-431 skin cancer cells; [4]): 101%
viability at 0.318 µM (A-431 skin cancer cells; [5]): 99%
viability at 1 µM (A-431 skin cancer cells; [6]): 102%
viability at 3 µM (A-431 skin cancer cells; [7]): 101%
viability at 10 µM (A-431 skin cancer cells; [8]): 99%
viability at 32 µM (A-431 skin cancer cells; [9]): 61%
viability at 100 µM (A-431 skin cancer cells; [10]): 39%
viability at 316 µM (A-431 skin cancer cells; [11]): 20%
viability at 1000 µM (A-431 skin cancer cells; [12]): 4%
IC50 (A-431 skin cancer cells; Table 9.1): 71.8 µM
viability at 0.101 µM (MCF7 breast cancer cells; [4]): 96%
viability at 0.318 µM (MCF7 breast cancer cells; [5]): 99%
viability at 1 µM (MCF7 breast cancer cells; [6]): 103%
viability at 3 µM (MCF7 breast cancer cells; [7]): 104%
viability at 10 µM (MCF7 breast cancer cells; [8]): 108%
viability at 32 µM (MCF7 breast cancer cells; [9]): 60%
viability at 100 µM (MCF7 breast cancer cells; [10]): 31%
viability at 316 µM (MCF7 breast cancer cells; [11]): 26%
viability at 1000 µM (MCF7 breast cancer cells; [12]): 24%
IC50 (MCF7 breast cancer cells; Table 5.1): 36 µM
viability at 0.101 µM (A549 lung cancer cells; [4]): 96%
viability at 0.318 µM (A549 lung cancer cells; [5]): 98%
viability at 1 µM (A549 lung cancer cells; [6]): 100%
viability at 3 µM (A549 lung cancer cells; [7]): 100%
viability at 10 µM (A549 lung cancer cells; [8]): 101%
viability at 32 µM (A549 lung cancer cells; [9]): 84%
viability at 100 µM (A549 lung cancer cells; [10]): 37%
viability at 316 µM (A549 lung cancer cells; [11]): 13%
viability at 1000 µM (A549 lung cancer cells; [12]): 10%
IC50 (A549 lung cancer cells; Table 7.1): 74.2 µM
viability at 0.101 µM (AGS stomach cancer cells; 72 h, 101 nM, read-out: Cell survival at given concentration): 99%
viability at 0.318 µM (AGS stomach cancer cells; 72 h, 318 nM, read-out: Cell survival at given concentration): 100%
viability at 1 µM (AGS stomach cancer cells; 72 h, 1 μM, Table 10.1, read-out: Cell survival at given concentration): 103%
viability at 3 µM (AGS stomach cancer cells; 72 h, 3 μM, Table 10.1, read-out: Cell survival at given concentration): 106%
viability at 10 µM (AGS stomach cancer cells; 72 h, 10 μM, Table 10.1, read-out: Cell survival at given concentration): 106%
viability at 32 µM (AGS stomach cancer cells; 72 h, 32 μM, Table 10.1, read-out: Cell survival at given concentration): 77%
viability at 100 µM (AGS stomach cancer cells; 72 h, 100 μM, Table 10.1, read-out: Cell survival at given concentration): 29%
viability at 316 µM (AGS stomach cancer cells; 72 h, 316 μM, read-out: Cell survival at given concentration): 8%
viability at 1000 µM (AGS stomach cancer cells; 72 h, 1000 μM, read-out: Cell survival at given concentration): 3%
IC50 (AGS stomach cancer cells; Table 10.1): 68.2 µM
viability at 0.101 µM [2, 4]: 100%
viability at 0.318 µM [2, 5]: 98%
viability at 1 µM [2, 6]: 101%
viability at 3 µM [2, 7]: 97%
viability at 10 µM [2, 8]: 93%
viability at 32 µM [2, 9]: 29%
viability at 100 µM [2, 10]: 2%
viability at 316 µM [2, 11]: 6%
viability at 1000 µM [2, 12]: 1%
IC50 ([2]; Table 6.1): 23.8 µM
viability at 0.101 µM [3, 4]: 100%
viability at 0.318 µM [3, 5]: 99%
viability at 1 µM [3, 6]: 100%
viability at 3 µM [3, 7]: 102%
viability at 10 µM [3, 8]: 96%
viability at 32 µM [3, 9]: 74%
viability at 100 µM [3, 10]: 52%
viability at 316 µM [3, 11]: 23%
viability at 1000 µM [3, 12]: 23%
IC50 ([3]; Table 8.1): 93.5 µM
